Laboratory results from PMC6839174, “Targeting the Formyl Peptide Receptor type 1 to prevent the adhesion of ovarian cancer cells onto mesothelium and subsequent invasion” (Journal of Experimental & Clinical Cancer Research : CR, 2019).
Non-standard residues stand in square brackets, D forms with d. Aib = CC(C)(N)C(=O)O

Columns and labels:
SKOV-3 cells = assay: GFP-SKOV-3 cell adhesion onto mesothelium (HPMC monolayer); type: cell-based, Human; details: means of three independent experiments in triplicate
Description: (§1) HPMCs (1 × 10^5 cells/well) suspended in growth medium, were seeded in 24-well plates and allowed to adhere for about 20 h until they form a confluent monolayer, prior to seeding GFP-tagged EOC cells suspended in growth medium plus diluents or 10 nM RI-3. At the indicated times, plates were accurately washed with PBS and cell-associated fluorescence was assessed by a fluorescence plate reader a fluorescence plate reader (Victor 3, Perkin Elmer), using 485 nm excitation and 535 nm emission filters. The experiments were performed three times in triplicate.

primary EOC cells [1] = assay: GFP-EOC (primary) cell adhesion onto mesothelium (HPMC monolayer); type: cell-based, human; details: three independent experiments in triplicate
Description: as §1

primary EOC cells [2] = assay: HPMC invasion by primary EOC cells monitored in real time; type: cell-based, human; details: 10 nM RI-3; xCELLigence, slopes 18–24 h; quadruplicate representative of 3 replicates
Description: (§2) HPMCs (5 × 10^3 cells/well) suspended in growth medium, were seeded in E-16-well plates and allow to adhere for 18–20 h until they form a confluent monolayer, prior to seeding EOC cells (2 × 10^4 cells/well) in growth medium plus/minus 10 nM RI-3. When HPMCs are challenged with invading cells, there is a drop in electrical resistance within 2–4 h which is monitored in real-time as the Cell Index changes due to the rupture of mesothelium. The experiments were performed three times in quadruplicate.

[3] = system: SKOV-3 and primary EOC cells; assay: Cell adhesion to vitronectin, SKOV-3 and primary EOC cells (summary statement); type: cell-based, human; details: pre-exposure
Description: Adhesion assays were performed using 24 multi-well plates coated with 1% BSA, 5 μg mL vitronectin (Vn), 5 μg mL fibronectin (Fn), 5 μg mL laminin (Lm) or 15 μg mL collagen (Coll) diluted in serum-free medium. Sub-confluent cells were harvested by a mild trypsinization, incubated with 10% FBS / DMEM for 1 h at 37 °C, 5% CO2, acid treated with a buffer containing 50 mM glycin-HC1, 0.1 M NaCl, pH 3 for 4 min at 22 °C, to remove receptor-bound ligands, and counted. Viable cells (2 × 10^5 cells per well) were plated in serum-free medium, in the absence or presence of 2 μg/mL R3 mAb recognizing the DI uPAR domain, 2 μg/mL399 anti-uPAR (American Diagnostica), 2 μg/mL anti-uPAR84-95 (PRIMM), 2 μg/mL anti-α-tubulin (Cell Signaling) Abs or 10 nM RI-3, and allowed to adhere for 2 h at 37 °C, 5% CO2. […] At the end of the assay, adherent cells were removed with 0.05% trypsin, and counted. The number of adherent cells was expressed as a percentage of the basal cell adhesion (CTRL). The experiments were performed at least three times in triplicate.
This assay was performed using E-16-well plates and the xCELLigence Real Time Cell Analysis technology. […] The impedance value of each well was automatically monitored in real-time for at least 2 h and expressed as a cell index value. […]

EOC cells = assay: EOC cell adhesion to and crossing of mesothelial cell monolayers (summary statement); type: cell-based, human; details: EOC cells exposed to RI-3 or desensitized with an excess of SRSRY
Description: as §1, §2

[4] = cited from earlier work
Description: (§3) Human FPR1, originally identified in neutrophils, monocytes and macrophages, has been shown in recent years, to be expressed also in many non-myelocytic cells. Aberrant expression of FPR1 was detected in tumors of different origin and reported as a negative prognostic factor [29–31]. While the role of uPAR in favoring intra-abdominal dissemination of ovarian cancer cells is largely documented, no data regarding expression and possible role of FPR1 on the surface of ovarian cancer cells are currently available. In the past years, we generated synthetic peptides containing the s ...

FPR1 [5] = details: ref [36], cited from earlier work
Description: as §3

[6] = system: p38 MAPK and PI3K/AKT signaling cascades; details: ref [36]; cited from earlier work
Description: as §3

[7] = system: sarcoma and melanoma cells; details: dose dependent, ref [36], [37]; cited from earlier work
Description: as §3

FPR1 [8] = details: FPR1 overexpressing rat basophilic leukaemia RBL-2H3/ETFR cells; stated also as conclusion for primary EOC cells; ref [38]; cited from earlier work
Description: In order to obtain primary cultures of EOC cells, representative fragments of tissue samples were fragmented and cells recovered, as described in the Methods. By enzymatic digestion of a HGSC tissue sample (patient #5), a primary cell culture expressing high levels of both uPAR and FPR1 on cell surface as shown by IHC, was obtained (Figs. 4 and 5a). Subsequent sub-cloning of isolated cell clusters (Fig. 5b) followed by five passages allowed us to obtain an adherent, homogeneous, CD326 positive cell population. These EOC cells express a considerable amount of both uPAR and FPR1 as shown by West ...

Ac-[dY][dR][Aib][dR]-NH2 [RI-3, retro-inverso peptide, uPAR/FPR1 antagonist]
reduction of cell associated fluorescence (SKOV-3 adhesion to mesothelium) (SKOV-3 cells; 10 nM RI-3, after 5 min): 57% | reduction of cell associated fluorescence (SKOV-3 adhesion to mesothelium) (SKOV-3 cells; 10 nM RI-3, after 10 min): 47% | reduction of cell associated fluorescence (SKOV-3 adhesion to mesothelium) (SKOV-3 cells; 10 nM RI-3, after 20 min): 58% | reduction of cell associated fluorescence (SKOV-3 adhesion to mesothelium) (SKOV-3 cells; 10 nM RI-3, after 40 min): 54% | reduction of EOC cell adhesion onto mesothelium (primary EOC cells [1]; 10 nM RI-3, after 5 min): 72% | reduction of EOC cell adhesion onto mesothelium (primary EOC cells [1]; 10 nM RI-3, after 10 min): 51% | reduction of EOC cell adhesion onto mesothelium (primary EOC cells [1]; 10 nM RI-3, after 20 min): 47% | reduction of EOC cell adhesion onto mesothelium (primary EOC cells [1]; 10 nM RI-3, after 40 min): 46% | reduction of capability of EOC cells to cross the mesothelial cell monolayer (primary EOC cells [2]): about 80% | extent of cell adhesion to vitronectin (abstract) [3]: decreases to basal level | ability to cross mesothelial cell monolayers (abstract) (EOC cells): losing the ability to cross them | stability in human serum [4]: stable in human serum | competition for binding to FPR1 (FPR1 [5]; competes with fMLF and SRSRY): competes with fMLF and SRSRY for binding to FPR1 | SRSRY-induced FPR1 internalization (FPR1 [5]): preventing SRSRY-induced FPR1 internalization | p38 MAPK and PI3K/AKT signaling cascades [6]: preventing SRSRY-induced FPR1 internalization as well as p38 MAPK and PI3K/AKT signaling cascades | concentration range for overall 50% reduction of cell invasion [7]: nanomolar range | concentration range for overall 50% reduction of cell migration [7]: picomolar | FPR1 binding and blockade of internalization and function (FPR1 [8]): binds to FPR1 blocking its internalization and function
